# Patent publication US20250161234A1, “METHODS OF USE OF BENZALDEHYDE COMPOSITIONS” (priority 2022, published 2025)
# Key:
# Type in all cases: cell-based
# E. coli [1] = assay: Successive dilution in TSB, growth inhibition; design: key: The presence of a “+” in the box indicates that the particular bacteria was found; the presence of a “−” indicates that the particular bacteria was not found; conditions: benzaldehyde concentration given as 2, in TSB; Table 1
# Pseudomonas aeruginosa = assay: Successive dilution in TSB, growth inhibition; design: key: The presence of a “+” in the box indicates that the particular bacteria was found; the presence of a “−” indicates that the particular bacteria was not found
# Experimental: (§1) The following is a summary of an experiment using the benzaldehyde composition as disclosed herein to destroy bacteria, for example to test it as a preservative of food. The benzaldehyde was tested for its ability to inhibit the growth of microbes at ten different concentrations of the benzaldehyde, each concentration was half of the previous concentrations as a result of a dilution using TSB as the medium. The following concentrations were tested by successive dilutions of 100% benzaldehyde: 50%, 25%, 12.5%, 6.25%, 3.125%, 1.5625%, 0.78125%, 0.390625%, 0.195313%, 0.097656%. Each concentration appears in the chart below for each of five different strains of bacteria. The experiment was conducted twice and therefore generated two charts (see below). […] Thus, the minimum concentration needed to substantially eliminate the bacterial strain can be deduced from the experiment.
# (§2) The initial concentration of the microbes was approximately […]. The microbes studied are listed below. Enterococcus feaclis • 2. Staphylococcus aureus • 3. Pseudomonas aeruginosa • 4. E. coli • 5. Klebsiella pneomoniae
# Klebsiella pneomoniae = assay: Successive dilution in TSB, growth inhibition; design: key: The presence of a “+” in the box indicates that the particular bacteria was found; the presence of a “−” indicates that the particular bacteria was not found
# Experimental: as §1, §2
# E. coli [2] = assay: Successive dilution in TSB, growth inhibition; design: key: The presence of a “+” in the box indicates that the particular bacteria was found; the presence of a “−” indicates that the particular bacteria was not found
# Experimental: as §1, §2
# Enterococcus feaclis = assay: Successive dilution in TSB, growth inhibition; design: key: The presence of a “+” in the box indicates that the particular bacteria was found; the presence of a “−” indicates that the particular bacteria was not found
# Experimental: as §1, §2
# Staphylococcus aureus = assay: Successive dilution in TSB, growth inhibition; design: key: The presence of a “+” in the box indicates that the particular bacteria was found; the presence of a “−” indicates that the particular bacteria was not found
# Experimental: as §1, §2
# [3] = test system: five different strains of bacteria; assay: Successive dilution in TSB, statements on all five strains
# Experimental: as §1, §2
# A further experiment was conducted in which instead of starting from a 100% concentration, we started from a 10% concentration of benzaldehyde and performed successive dilutions. […] This experimental was not repeated after receiving the results.
# [4] = benzaldehyde 0.097656% in TSB, Table 1
# [5] = benzaldehyde 0.097656% in TSB, Table 2
# [6] = benzaldehyde 0.195313% in TSB, Table 1
# [7] = benzaldehyde 0.195313% in TSB, Table 2
# [8] = benzaldehyde 0.390625% in TSB, Table 1
# [9] = benzaldehyde 0.390625% in TSB, Table 2
# [10] = benzaldehyde 0.78125% in TSB, Table 1
# [11] = benzaldehyde 0.78125% in TSB, Table 2
# [12] = benzaldehyde 1.5625% in TSB, Table 1
# [13] = benzaldehyde 1.5625% in TSB, Table 2
# [14] = benzaldehyde 3.125% in TSB, Table 1
# [15] = benzaldehyde 3.125% in TSB, Table 2
# [16] = benzaldehyde 6.25% in TSB, Table 1
# [17] = benzaldehyde 6.25% in TSB, Table 2
# [18] = benzaldehyde 12.5% in TSB, Table 1
# [19] = benzaldehyde 12.5% in TSB, Table 2
# [20] = benzaldehyde 25% in TSB, Table 2
# [21] = benzaldehyde 50% in TSB, Table 1
# [22] = benzaldehyde 50% in TSB, Table 2
# [23] = benzaldehyde concentration given as 2, in TSB, Table 1
# [24] = conclusion from the dilution experiments
smiles,measurement,setting,value
O=Cc1ccccc1 [Benzaldehyde],bacteria found (+) / not found (−),E. coli [1],−
same,bacteria found (+) / not found (−),Pseudomonas aeruginosa; [4],+
same,bacteria found (+) / not found (−),Pseudomonas aeruginosa; [5],+
same,bacteria found (+) / not found (−),Pseudomonas aeruginosa; [6],+
same,bacteria found (+) / not found (−),Pseudomonas aeruginosa; [7],+
same,bacteria found (+) / not found (−),Pseudomonas aeruginosa; [8],+
same,bacteria found (+) / not found (−),Pseudomonas aeruginosa; [9],+
same,bacteria found (+) / not found (−),Pseudomonas aeruginosa; [10],+
same,bacteria found (+) / not found (−),Pseudomonas aeruginosa; [11],+
same,bacteria found (+) / not found (−),Pseudomonas aeruginosa; [12],−
same,bacteria found (+) / not found (−),Pseudomonas aeruginosa; [13],−
same,bacteria found (+) / not found (−),Pseudomonas aeruginosa; [14],−
same,bacteria found (+) / not found (−),Pseudomonas aeruginosa; [15],−
same,bacteria found (+) / not found (−),Pseudomonas aeruginosa; [16],−
same,bacteria found (+) / not found (−),Pseudomonas aeruginosa; [17],−
same,bacteria found (+) / not found (−),Pseudomonas aeruginosa; [18],−
same,bacteria found (+) / not found (−),Pseudomonas aeruginosa; [19],−
same,bacteria found (+) / not found (−),Pseudomonas aeruginosa; [20],−
same,bacteria found (+) / not found (−),Pseudomonas aeruginosa; [21],−
same,bacteria found (+) / not found (−),Pseudomonas aeruginosa; [22],−
same,bacteria found (+) / not found (−),"Pseudomonas aeruginosa; in TSB, Table 1",−
same,bacteria found (+) / not found (−),Klebsiella pneomoniae; [4],+
same,bacteria found (+) / not found (−),Klebsiella pneomoniae; [5],+
same,bacteria found (+) / not found (−),Klebsiella pneomoniae; [6],+
same,bacteria found (+) / not found (−),Klebsiella pneomoniae; [7],+
same,bacteria found (+) / not found (−),Klebsiella pneomoniae; [8],+
same,bacteria found (+) / not found (−),Klebsiella pneomoniae; [9],−
same,bacteria found (+) / not found (−),Klebsiella pneomoniae; [10],+
same,bacteria found (+) / not found (−),Klebsiella pneomoniae; [11],−
same,bacteria found (+) / not found (−),Klebsiella pneomoniae; [12],−
same,bacteria found (+) / not found (−),Klebsiella pneomoniae; [13],−
same,bacteria found (+) / not found (−),Klebsiella pneomoniae; [14],−
same,bacteria found (+) / not found (−),Klebsiella pneomoniae; [15],−
same,bacteria found (+) / not found (−),Klebsiella pneomoniae; [16],−
same,bacteria found (+) / not found (−),Klebsiella pneomoniae; [17],−
same,bacteria found (+) / not found (−),Klebsiella pneomoniae; [18],−
same,bacteria found (+) / not found (−),Klebsiella pneomoniae; [19],−
same,bacteria found (+) / not found (−),Klebsiella pneomoniae; [20],−
same,bacteria found (+) / not found (−),Klebsiella pneomoniae; [21],−
same,bacteria found (+) / not found (−),Klebsiella pneomoniae; [22],−
same,bacteria found (+) / not found (−),Klebsiella pneomoniae; [23],−
same,bacteria found (+) / not found (−),E. coli [2]; [4],+
same,bacteria found (+) / not found (−),E. coli [2]; [5],+
same,bacteria found (+) / not found (−),E. coli [2]; [6],+
same,bacteria found (+) / not found (−),E. coli [2]; [7],+
same,bacteria found (+) / not found (−),E. coli [2]; [8],+
same,bacteria found (+) / not found (−),E. coli [2]; [9],+
same,bacteria found (+) / not found (−),E. coli [2]; [10],+
same,bacteria found (+) / not found (−),E. coli [2]; [11],+
same,bacteria found (+) / not found (−),E. coli [2]; [12],−
same,bacteria found (+) / not found (−),E. coli [2]; [13],−
same,bacteria found (+) / not found (−),E. coli [2]; [14],−
same,bacteria found (+) / not found (−),E. coli [2]; [15],−
same,bacteria found (+) / not found (−),E. coli [2]; [16],−
same,bacteria found (+) / not found (−),E. coli [2]; [17],−
same,bacteria found (+) / not found (−),E. coli [2]; [18],−
same,bacteria found (+) / not found (−),E. coli [2]; [19],−
same,bacteria found (+) / not found (−),E. coli [2]; [20],−
same,bacteria found (+) / not found (−),E. coli [2]; [21],−
same,bacteria found (+) / not found (−),E. coli [2]; [22],−
same,bacteria found (+) / not found (−),Enterococcus feaclis; [4],+
same,bacteria found (+) / not found (−),Enterococcus feaclis; [5],+
same,bacteria found (+) / not found (−),Enterococcus feaclis; [6],+
same,bacteria found (+) / not found (−),Enterococcus feaclis; [7],+
same,bacteria found (+) / not found (−),Enterococcus feaclis; [8],+
same,bacteria found (+) / not found (−),Enterococcus feaclis; [9],+
same,bacteria found (+) / not found (−),Enterococcus feaclis; [10],+
same,bacteria found (+) / not found (−),Enterococcus feaclis; [11],+
same,bacteria found (+) / not found (−),Enterococcus feaclis; [12],+
same,bacteria found (+) / not found (−),Enterococcus feaclis; [13],+
same,bacteria found (+) / not found (−),Enterococcus feaclis; [14],+
same,bacteria found (+) / not found (−),Enterococcus feaclis; [15],+
same,bacteria found (+) / not found (−),Enterococcus feaclis; [16],+
same,bacteria found (+) / not found (−),Enterococcus feaclis; [17],+
same,bacteria found (+) / not found (−),Enterococcus feaclis; [18],−
same,bacteria found (+) / not found (−),Enterococcus feaclis; [19],−
same,bacteria found (+) / not found (−),Enterococcus feaclis; [20],−
same,bacteria found (+) / not found (−),Enterococcus feaclis; [21],−
same,bacteria found (+) / not found (−),Enterococcus feaclis; [22],−
same,bacteria found (+) / not found (−),Enterococcus feaclis; [23],−
same,bacteria found (+) / not found (−),Staphylococcus aureus; [4],+
same,bacteria found (+) / not found (−),Staphylococcus aureus; [5],+
same,bacteria found (+) / not found (−),Staphylococcus aureus; [6],+
same,bacteria found (+) / not found (−),Staphylococcus aureus; [7],+
same,bacteria found (+) / not found (−),Staphylococcus aureus; [8],+
same,bacteria found (+) / not found (−),Staphylococcus aureus; [9],+
same,bacteria found (+) / not found (−),Staphylococcus aureus; [10],+
same,bacteria found (+) / not found (−),Staphylococcus aureus; [11],+
same,bacteria found (+) / not found (−),Staphylococcus aureus; [12],+
same,bacteria found (+) / not found (−),Staphylococcus aureus; [13],−
same,bacteria found (+) / not found (−),Staphylococcus aureus; [14],−
same,bacteria found (+) / not found (−),Staphylococcus aureus; [15],−
same,bacteria found (+) / not found (−),Staphylococcus aureus; [16],−
same,bacteria found (+) / not found (−),Staphylococcus aureus; [17],−
same,bacteria found (+) / not found (−),Staphylococcus aureus; [18],−
same,bacteria found (+) / not found (−),Staphylococcus aureus; [19],−
same,bacteria found (+) / not found (−),Staphylococcus aureus; [20],−
same,bacteria found (+) / not found (−),Staphylococcus aureus; [21],−
same,bacteria found (+) / not found (−),Staphylococcus aureus; [22],−
same,bacteria found (+) / not found (−),Staphylococcus aureus; [23],−
same,benzaldehyde concentration giving a broad spectrum effect,[3]; [24],≥ 12.5%
same,benzaldehyde concentration giving an antibacterial effect against at least some bacteria,[3]; [24],≥ 1.5625%
same,detection of bacteria,"[3]; further experiment started from 10% benzaldehyde, first dilution to 5%, all strains",positive detection of bacteria for all strains
